Measured values: US20230398130A1, “METHODS AND COMPOSITIONS FOR DIFFERENTIATING STEM CELLS” (Massachusetts Institute of Technology, priority 2020, published 2023)

How the values were obtained:
ISC-enriched organoids [1] = assay: Primary screen, 384-well 2.5-D organoid differentiation (ENR+CD, 6 days, Target Selective Inhibitor Library, vs whole-plate median): ATP (CellTiter-Glo 3D, CTG); details: primary screen; for Dose.FC.CTG: ENR+CD 6 days, FC vs plate median; for Z.CTG: standard z score of FC
ISC-enriched organoids [2] = assay: Primary screen, 384-well 2.5-D organoid differentiation (ENR+CD, 6 days): carbachol-induced lysozyme secretion (LYZ.S); type: cell-based, murine; details: primary screen, ENR+CD 6 days, FC vs plate median
Text: (§1) High-throughput screening.

ISC-enriched organoids [3] = assay: Primary screen, 384-well 2.5-D organoid differentiation (ENR+CD, 6 days): basal lysozyme secretion (LYZ.NS); type: cell-based, murine; details: primary screen; for Dose.FC.LYZ.NS: ENR+CD 6 days, FC vs plate median; for Z.LYZ.NS: standard z score of FC
Text: as §1

Q: How did the Dose.FC.CTG (ISC-enriched organoids [1]; dose 0.08 uM) turn out when C=CC(=O)Nc1cccc(Nc2nc(Nc3ccc(OCCOC)cc3)ncc2F)c1 [AVL-292] was run?
A: The Dose.FC.CTG was 0.217 log 2 fold change.

Q: What about the Z.CTG (ISC-enriched organoids [1]; dose 0.08 uM) of the same compound?
A: Its Z.CTG is 0.518.

Q: And the Dose.FC.CTG (ISC-enriched organoids [1]; dose 0.40 uM)?
A: Its Dose.FC.CTG is 0.057 log 2 fold change.

Q: What about the Z.CTG (ISC-enriched organoids [1]; dose 0.40 uM) of the same compound?
A: The Z.CTG was 0.135.

Q: And the Dose.FC.CTG (ISC-enriched organoids [1]; dose 2.00 uM)?
A: The Dose.FC.CTG was −0.058 log 2 fold change.

Q: What about the Z.CTG (ISC-enriched organoids [1]; dose 2.00 uM) of the same compound?
A: The Z.CTG was −0.138.

Q: What about the Dose.FC.CTG (ISC-enriched organoids [1]; dose 10.00 uM) of the same compound?
A: Its Dose.FC.CTG is −0.778 log 2 fold change.

Q: And the Z.CTG (ISC-enriched organoids [1]; dose 10.00 uM)?
A: Its Z.CTG is −1.859.

Q: And the Dose.FC.LYZ.S (ISC-enriched organoids [2]; dose 0.08 uM)?
A: The Dose.FC.LYZ.S was 0.235 log 2 fold change.

Q: What about the Dose.FC.LYZ.S (ISC-enriched organoids [2]; dose 0.40 uM) of the same compound?
A: The Dose.FC.LYZ.S was 0.106 log 2 fold change.

Q: What about the Dose.FC.LYZ.S (ISC-enriched organoids [2]; dose 2.00 uM) of the same compound?
A: Its Dose.FC.LYZ.S is −0.206 log 2 fold change.

Q: And the Dose.FC.LYZ.S (ISC-enriched organoids [2]; dose 10.00 uM)?
A: Its Dose.FC.LYZ.S is −0.376 log 2 fold change.

Q: And the Dose.FC.LYZ.NS (ISC-enriched organoids [3]; dose 0.08 uM)?
A: The Dose.FC.LYZ.NS was 0.095 log 2 fold change.

Q: And the Z.LYZ.NS (ISC-enriched organoids [3]; dose 0.08 uM)?
A: Its Z.LYZ.NS is 0.831.

Q: What about the Dose.FC.LYZ.NS (ISC-enriched organoids [3]; dose 0.40 uM) of the same compound?
A: The Dose.FC.LYZ.NS was 0.052 log 2 fold change.

Q: What about the Z.LYZ.NS (ISC-enriched organoids [3]; dose 0.40 uM) of the same compound?
A: The Z.LYZ.NS was 0.451.

Q: And the Dose.FC.LYZ.NS (ISC-enriched organoids [3]; dose 2.00 uM)?
A: Its Dose.FC.LYZ.NS is −0.112 log 2 fold change.

Q: And the Z.LYZ.NS (ISC-enriched organoids [3]; dose 2.00 uM)?
A: The Z.LYZ.NS was −0.979.

Q: And the Dose.FC.LYZ.NS (ISC-enriched organoids [3]; dose 10.00 uM)?
A: Its Dose.FC.LYZ.NS is −0.213 log 2 fold change.

Q: And the Z.LYZ.NS (ISC-enriched organoids [3]; dose 10.00 uM)?
A: Its Z.LYZ.NS is −1.858.

Q: What does the source list for C[C@@H]1COCCN1c1cc(C2(S(C)(=O)=O)CC2)nc(-c2cccc3[nH]ccc23)n1 [AZ20]?
A: Dose.FC.CTG (ISC-enriched organoids [1]; dose 0.08 uM): −0.210 log 2 fold change; Z.CTG (ISC-enriched organoids [1]; dose 0.08 uM): −0.500; Dose.FC.CTG (ISC-enriched organoids [1]; dose 0.40 uM): −0.218 log 2 fold change; Z.CTG (ISC-enriched organoids [1]; dose 0.40 uM): −0.521; Dose.FC.CTG (ISC-enriched organoids [1]; dose 2.00 uM): −1.054 log 2 fold change; Z.CTG (ISC-enriched organoids [1]; dose 2.00 uM): −2.519; Dose.FC.CTG (ISC-enriched organoids [1]; dose 10.00 uM): −0.573 log 2 fold change; Z.CTG (ISC-enriched organoids [1]; dose 10.00 uM): −1.368; Dose.FC.LYZ.S (ISC-enriched organoids [2]; dose 0.08 uM): −0.038 log 2 fold change; Dose.FC.LYZ.S (ISC-enriched organoids [2]; dose 0.40 uM): −0.236 log 2 fold change; Dose.FC.LYZ.S (ISC-enriched organoids [2]; dose 2.00 uM): −0.373 log 2 fold change; Dose.FC.LYZ.S (ISC-enriched organoids [2]; dose 10.00 uM): −0.329 log 2 fold change; Dose.FC.LYZ.NS (ISC-enriched organoids [3]; dose 0.08 uM): 0.042 log 2 fold change; Z.LYZ.NS (ISC-enriched organoids [3]; dose 0.08 uM): 0.365; Dose.FC.LYZ.NS (ISC-enriched organoids [3]; dose 0.40 uM): −0.140 log 2 fold change; Z.LYZ.NS (ISC-enriched organoids [3]; dose 0.40 uM): −1.222; Dose.FC.LYZ.NS (ISC-enriched organoids [3]; dose 2.00 uM): −0.215 log 2 fold change; Z.LYZ.NS (ISC-enriched organoids [3]; dose 2.00 uM): −1.868; Dose.FC.LYZ.NS (ISC-enriched organoids [3]; dose 10.00 uM): −0.261 log 2 fold change; Z.LYZ.NS (ISC-enriched organoids [3]; dose 10.00 uM): −2.271

Q: What does the source list for COc1cc(N2CCN(C)CC2)ccc1Nc1nccc(-c2cn(C)c3cnccc23)n1 [AZ191]?
A: Dose.FC.CTG (ISC-enriched organoids [1]; dose 0.08 uM): 0.292 log 2 fold change; Z.CTG (ISC-enriched organoids [1]; dose 0.08 uM): 0.697; Dose.FC.CTG (ISC-enriched organoids [1]; dose 0.40 uM): 0.337 log 2 fold change; Z.CTG (ISC-enriched organoids [1]; dose 0.40 uM): 0.804; Dose.FC.CTG (ISC-enriched organoids [1]; dose 2.00 uM): 0.150 log 2 fold change; Z.CTG (ISC-enriched organoids [1]; dose 2.00 uM): 0.358; Dose.FC.CTG (ISC-enriched organoids [1]; dose 10.00 uM): −0.533 log 2 fold change; Z.CTG (ISC-enriched organoids [1]; dose 10.00 uM): −1.272; Dose.FC.LYZ.S (ISC-enriched organoids [2]; dose 0.08 uM): 0.143 log 2 fold change; Dose.FC.LYZ.S (ISC-enriched organoids [2]; dose 0.40 uM): 0.199 log 2 fold change; Dose.FC.LYZ.S (ISC-enriched organoids [2]; dose 2.00 uM): 0.097 log 2 fold change; Dose.FC.LYZ.S (ISC-enriched organoids [2]; dose 10.00 uM): −0.200 log 2 fold change; Dose.FC.LYZ.NS (ISC-enriched organoids [3]; dose 0.08 uM): 0.128 log 2 fold change; Z.LYZ.NS (ISC-enriched organoids [3]; dose 0.08 uM): 1.111; Dose.FC.LYZ.NS (ISC-enriched organoids [3]; dose 0.40 uM): 0.082 log 2 fold change; Z.LYZ.NS (ISC-enriched organoids [3]; dose 0.40 uM): 0.717; Dose.FC.LYZ.NS (ISC-enriched organoids [3]; dose 2.00 uM): 0.058 log 2 fold change; Z.LYZ.NS (ISC-enriched organoids [3]; dose 2.00 uM): 0.507; Dose.FC.LYZ.NS (ISC-enriched organoids [3]; dose 10.00 uM): −0.148 log 2 fold change; Z.LYZ.NS (ISC-enriched organoids [3]; dose 10.00 uM): −1.289

Q: What does the source list for COc1cc(OC2CCN(C)CC2)ccc1Nc1ncc2c(n1)n(C1CCCC1)c(=O)n2C [AZ 3146]?
A: Dose.FC.CTG (ISC-enriched organoids [1]; dose 0.08 uM): −0.130 log 2 fold change; Z.CTG (ISC-enriched organoids [1]; dose 0.08 uM): −0.310; Dose.FC.CTG (ISC-enriched organoids [1]; dose 0.40 uM): −0.262 log 2 fold change; Z.CTG (ISC-enriched organoids [1]; dose 0.40 uM): −0.626; Dose.FC.CTG (ISC-enriched organoids [1]; dose 2.00 uM): −0.369 log 2 fold change; Z.CTG (ISC-enriched organoids [1]; dose 2.00 uM): −0.881; Dose.FC.CTG (ISC-enriched organoids [1]; dose 10.00 uM): −1.168 log 2 fold change; Z.CTG (ISC-enriched organoids [1]; dose 10.00 uM): −2.789; Dose.FC.LYZ.S (ISC-enriched organoids [2]; dose 0.08 uM): 0.049 log 2 fold change; Dose.FC.LYZ.S (ISC-enriched organoids [2]; dose 0.40 uM): −0.067 log 2 fold change; Dose.FC.LYZ.S (ISC-enriched organoids [2]; dose 2.00 uM): −0.130 log 2 fold change; Dose.FC.LYZ.S (ISC-enriched organoids [2]; dose 10.00 uM): −0.422 log 2 fold change; Dose.FC.LYZ.NS (ISC-enriched organoids [3]; dose 0.08 uM): 0.073 log 2 fold change; Z.LYZ.NS (ISC-enriched organoids [3]; dose 0.08 uM): 0.639; Dose.FC.LYZ.NS (ISC-enriched organoids [3]; dose 0.40 uM): −0.038 log 2 fold change; Z.LYZ.NS (ISC-enriched organoids [3]; dose 0.40 uM): −0.327; Dose.FC.LYZ.NS (ISC-enriched organoids [3]; dose 2.00 uM): −0.079 log 2 fold change; Z.LYZ.NS (ISC-enriched organoids [3]; dose 2.00 uM): −0.687; Dose.FC.LYZ.NS (ISC-enriched organoids [3]; dose 10.00 uM): −0.281 log 2 fold change; Z.LYZ.NS (ISC-enriched organoids [3]; dose 10.00 uM): −2.447

Q: Which results are given for CC(=O)Nc1cccc2c1c(Sc1ccc(Cl)cc1)c(C)n2CC(=O)O [AZD1981]?
A: Dose.FC.CTG (ISC-enriched organoids [1]; dose 0.08 uM): 0.400 log 2 fold change; Z.CTG (ISC-enriched organoids [1]; dose 0.08 uM): 0.955; Dose.FC.CTG (ISC-enriched organoids [1]; dose 0.40 uM): 0.285 log 2 fold change; Z.CTG (ISC-enriched organoids [1]; dose 0.40 uM): 0.681; Dose.FC.CTG (ISC-enriched organoids [1]; dose 2.00 uM): 0.099 log 2 fold change; Z.CTG (ISC-enriched organoids [1]; dose 2.00 uM): 0.236; Dose.FC.CTG (ISC-enriched organoids [1]; dose 10.00 uM): 0.238 log 2 fold change; Z.CTG (ISC-enriched organoids [1]; dose 10.00 uM): 0.570; Dose.FC.LYZ.S (ISC-enriched organoids [2]; dose 0.08 uM): 0.023 log 2 fold change; Dose.FC.LYZ.S (ISC-enriched organoids [2]; dose 0.40 uM): 0.191 log 2 fold change; Dose.FC.LYZ.S (ISC-enriched organoids [2]; dose 2.00 uM): 0.014 log 2 fold change; Dose.FC.LYZ.S (ISC-enriched organoids [2]; dose 10.00 uM): 0.070 log 2 fold change; Dose.FC.LYZ.NS (ISC-enriched organoids [3]; dose 0.08 uM): 0.009 log 2 fold change; Z.LYZ.NS (ISC-enriched organoids [3]; dose 0.08 uM): 0.081; Dose.FC.LYZ.NS (ISC-enriched organoids [3]; dose 0.40 uM): 0.001 log 2 fold change; Z.LYZ.NS (ISC-enriched organoids [3]; dose 0.40 uM): 0.008; Dose.FC.LYZ.NS (ISC-enriched organoids [3]; dose 2.00 uM): 0.001 log 2 fold change; Z.LYZ.NS (ISC-enriched organoids [3]; dose 2.00 uM): 0.011; Dose.FC.LYZ.NS (ISC-enriched organoids [3]; dose 10.00 uM): 0.024 log 2 fold change; Z.LYZ.NS (ISC-enriched organoids [3]; dose 10.00 uM): 0.205
